Laboratory results reported in patent publication US10023538B2, “Compounds, compositions and associated methods comprising 3-aryl quinolines” (Oregon Health & Science University, priority 2012, dated 2018).
Read-outs that look alike come from different tables or passages of the source.

Key:
P. falciparum strain D6 = test: Antiplasmodial fluorescence-based SyBr Green assay, strain D6; assay type: cell-based, Plasmodium falciparum
Experimental: (§1) The IC50 values listed in Table 1 were determined by the fluorescence-based SyBr Green assay described in Smilkstein (Smilkstein M, Antimicrob Agents Chemother 48, 1803-1806 (2004)). Values are the mean of at least two experiments, each performed in triplicate. […] NT=not tested.

P. falciparum strain Dd2 = test: Antiplasmodial fluorescence-based SyBr Green assay, strain Dd2; assay type: cell-based, Plasmodium falciparum
Experimental: as §1

P. falciparum strain 7G8 = test: Antiplasmodial fluorescence-based SyBr Green assay, strain 7G8; assay type: cell-based, Plasmodium falciparum
Experimental: as §1

[1] = test system: P. falciparum strain Tm90.C2B; test: Antiplasmodial activity against strain Tm90.C2B; assay type: cell-based, Plasmodium falciparum
Experimental: as §1
Furthermore, Compound 1 was evaluated against the strain Tm90.C2B.

P. yoelii = test: In vivo efficacy, P. yoelii mouse model of malaria (Strain K model); design: species or system female CF1 mice; settings: P. yoelii / CF1 mice
Experimental: The efficacy of Compound 1 in vivo using a P. yoelii mouse model of malaria (Strain K model) was studied. Female CF1 mice were inoculated intravenously with 1-2 million infected red blood cells obtained from infected donor animals. Infected cells were collected then randomly sorted into groups of four mice on Day 0. Drug administration began on Day 1. […] Both drugs were administered daily by gavage as the dihydrochloride salt dissolved in 100 μl of water for Days, 1, 2, 3, and 4. Blood films were prepared on Day 5 (the day after the final drug dose), fixed in methanol, stained with Giemsa, and viewed microscopically to assess parasitemia.

[2] = Cytotoxicity vs. murine splenic lymphocytes; assay type: cell-based; settings: mouse
hERG potassium channel = hERG potassium channel (Homo sapiens, UniProt Q12809); test: hERG channel inhibition, QPatch HT automatic parallel patch clamp; assay type: cell-based; settings: hERG current expressed in mammalian cells, room temperature, tested at 1, 4, 12 μM in duplicate
Chain of hERG potassium channel (Q12809 whole entry): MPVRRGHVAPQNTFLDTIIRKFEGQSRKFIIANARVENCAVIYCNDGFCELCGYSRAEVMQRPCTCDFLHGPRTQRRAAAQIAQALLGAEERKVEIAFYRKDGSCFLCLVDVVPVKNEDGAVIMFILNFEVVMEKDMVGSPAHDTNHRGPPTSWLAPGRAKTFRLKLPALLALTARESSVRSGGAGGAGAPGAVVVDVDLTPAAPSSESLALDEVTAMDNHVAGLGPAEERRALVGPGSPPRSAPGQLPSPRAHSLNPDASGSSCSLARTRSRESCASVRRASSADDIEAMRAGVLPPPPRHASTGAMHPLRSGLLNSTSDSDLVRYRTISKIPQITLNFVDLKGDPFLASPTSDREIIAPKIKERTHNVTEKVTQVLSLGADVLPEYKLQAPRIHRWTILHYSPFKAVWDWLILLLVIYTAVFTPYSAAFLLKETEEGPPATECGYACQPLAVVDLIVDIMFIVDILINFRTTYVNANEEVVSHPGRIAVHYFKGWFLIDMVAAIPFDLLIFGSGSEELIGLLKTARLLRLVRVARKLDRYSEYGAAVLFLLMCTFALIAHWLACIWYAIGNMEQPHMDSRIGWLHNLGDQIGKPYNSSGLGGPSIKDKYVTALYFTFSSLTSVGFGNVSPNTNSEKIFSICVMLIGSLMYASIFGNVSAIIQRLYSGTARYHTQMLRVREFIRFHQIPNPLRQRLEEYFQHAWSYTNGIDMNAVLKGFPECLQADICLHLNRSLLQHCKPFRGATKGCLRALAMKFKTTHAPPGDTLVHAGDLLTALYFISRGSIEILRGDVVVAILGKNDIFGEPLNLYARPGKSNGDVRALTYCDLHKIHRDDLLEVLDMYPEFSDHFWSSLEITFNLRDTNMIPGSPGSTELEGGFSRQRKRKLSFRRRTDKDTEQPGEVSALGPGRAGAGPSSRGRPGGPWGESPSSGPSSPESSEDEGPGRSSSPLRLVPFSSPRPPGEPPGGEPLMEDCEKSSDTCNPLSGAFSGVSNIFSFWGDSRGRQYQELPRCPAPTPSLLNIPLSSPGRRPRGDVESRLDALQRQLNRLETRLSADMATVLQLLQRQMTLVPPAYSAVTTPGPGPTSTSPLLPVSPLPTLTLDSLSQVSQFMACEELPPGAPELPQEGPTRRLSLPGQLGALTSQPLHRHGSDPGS

[3] = Heme binding affinity in solution (UV/visible titration, NMR); settings: 20 mM phosphate buffer, pH 7.0, 25° C.; titration and NMR
Experimental: The binding affinity of Compound 1 and heme in solution was assessed as described by Kelly (Kelly, J X et al, Antimicrob Agents Chemother 46, 144-150 (2002); Kelly J X et al, Mol Biochem Parasitol 123, 47-54 (2002)). This assay correlates heme binding affinity and the mode of binding (i.e., binding to heme monomer or dimer) to intrinsic antimalarial activity in vitro and in vivo.
Association constants for heme-drug complexes were determined with all titrations conducted under aqueous conditions in 20 mM phosphate buffer, at pH 7.0 and 25° C. Titrations with compounds were performed by successive addition of aliquots of a 1 mM stock solution to a 10 μM heme solution at constant pH. All UV/visible spectral data was analyzed digitally with absorbance readings and concentrations corrected for dilution effects. The resulting titration curves were analyzed with Hill plot (Cantor and Schimmel, Biophysical Chemistry, W H Freeman and Co, New York, 1980) and non-linear curve fitting methods (Connors, Chemical Kinetics, VCH Publishers, New York, 1990). Titration curves were fit to the most accurate binding isotherm and stoichiometry.
Heme:drug interaction was assessed by NMR. NMR investigations involving Compound 1 binding to heme were performed as described in Kelly (Kelly, et al, supra).

P. falciparum strains = test: Antiplasmodial IC50 across P. falciparum strains (average / range); assay type: cell-based, Plasmodium falciparum
Experimental: as §1

[4] = Plasmodium falciparum, D6; read-out: IC50 Values (nM) Strain D6
[5] = Plasmodium falciparum, P. falciparum Dd2, multidrug resistant, mean of at least two experiments in triplicate, read-out: IC50 Values (nM) Strain Dd2
[6] = Plasmodium falciparum, P. falciparum 7G8, multidrug resistant, mean of at least two experiments in triplicate, read-out: IC50 Values (nM) Strain 7G8
[7] = Plasmodium falciparum, P. falciparum Tm90.C2B, multidrug and atovaquone resistant, unit inferred, read-out: IC50 value against strain Tm90.C2B
[8] = Plasmodium falciparum, D6, read-out: IC50 Values (nM) Strain D6
[9] = Plasmodium falciparum, DD2, read-out: IC50 Values (nM) Strain Dd2
[10] = Plasmodium falciparum, 7G8, read-out: IC50 Values (nM) Strain 7G8
[11] = P. falciparum D6, chloroquine sensitive; mean of at least two experiments in triplicate; read-out: IC50 Values (nM) Strain D6
[12] = P. falciparum Dd2, multidrug resistant, mean of at least two experiments in triplicate, read-out: IC50 Values (nM) Strain Dd2
[13] = P. falciparum 7G8, multidrug resistant, mean of at least two experiments in triplicate, read-out: IC50 Values (nM) Strain 7G8

Row | Compound | IC50 (P. falciparum strain D6; [4]) | IC50 (P. falciparum strain Dd2; [5]) | IC50 (P. falciparum strain 7G8; [6]) | other results
1 | O=C1C(O)=C([C@H]2CC[C@H](c3ccc(Cl)cc3)CC2)C(=O)c2ccccc21 [Atovaquone, reference compound] | 0.1 nM | 0.1 nM | 0.1 nM | IC50 [1, 7]: 7700 nM
2 | CCN(CC)CCCC(C)Nc1ccnc2cc(Cl)ccc12 (stereo not shown) [Chloroquine, reference compound] | – | – | – | IC50 (P. falciparum strain D6; [8]): 9.2 nM; IC50 (P. falciparum strain Dd2; [9]): 120 nM; IC50 (P. falciparum strain 7G8; [10]): 78 nM; IC50 ([1]; Plasmodium falciparum, TM90, read-out: IC50 value against strain Tm90.C2B): 106 nM; Cure of animals (P. yoelii; at dosages as high as 64 mg/kg/day): did not cure any of the animals
3 | CC(C)(C)NCCCNc1c(-c2ccc(OC(F)(F)F)cc2)cnc2cc(Cl)ccc12 [Compound 1, N1-(tert-butyl)-N3-(7-chloro-3-(4-(trifluoromethoxy)phenyl)-quinolin-4-yl)-propane-1,3-diamine] | 0.9 nM | 1.4 nM | 1.3 nM | IC50 [1, 7]: 1.3 nM; ED50 (P. yoelii; gavage daily Days 1-4, parasitemia Day 5, drugs given as salts): 0.25 mg/kg/day; Cure of animals (P. yoelii; at 16 and 64 mg/kg/day): cured all animals; IC50 [2]: 4.98 µM; IC50 (hERG potassium channel): 4 µM; Affinity for free heme [3]: strong affinity for free heme; IC50 (P. falciparum strains; Plasmodium falciparum, average over strains, read-out: Avg IC50 values vs P. falciparum strains): 1.2 nM
4 | CC(C)(C)NCCCNc1c(-c2ccc(Cl)cc2)cnc2cc(Cl)ccc12 [Compound 2] | 8 nM | 15 nM | 5.8 nM | –
5 | CC(C)(C)NCCCNc1c(-c2ccccc2)cnc2cc(Cl)ccc12 [Compound 3] | 8.7 nM | 17 nM | 6.4 nM | –
6 | CC(C)(C)NCCCNc1c(-c2ccc(C(F)(F)F)cc2)cnc2cc(Cl)ccc12 [Compound 4] | 4.8 nM | 11.9 nM | 9.7 nM | –
7 | CC(C)(C)NCCCNc1c(-c2ccc(C(F)(F)F)nc2)cnc2cc(Cl)ccc12 [Compound 5] | 55.2 nM | 89 nM | 132 nM | –
8 | CC(C)(C)NCCCNc1c(-c2ccc(Oc3ccc(OC(F)(F)F)cc3)cc2)cnc2cc(Cl)ccc12 [Compound 6] | 2.3 nM | 3.3 nM | 1.6 nM | –
9 | CC(C)(C)NCCCNc1c(-c2ccc(-c3ccccc3)cc2)cnc2cc(Cl)ccc12 [Compound 7] | 0.9 nM | 2.9 nM | 1.4 nM | –
10 | CC(C)(C)NCCCNc1c(-c2ccc(-c3ccc(OC(F)(F)F)cc3)cc2)cnc2cc(Cl)ccc12 [Compound 8] | – | – | – | IC50 (P. falciparum strain D6; [11]): 5.3 nM; IC50 (P. falciparum strain Dd2; [12]): 5.9 nM; IC50 (P. falciparum strain 7G8; [13]): 8.3 nM
11 | CC(C)(C)NCCCNc1c(-c2ccc(F)cc2)cnc2cc(Cl)ccc12 [Compound 10] | – | – | – | IC50 (P. falciparum strain D6; [11]): 13.1 nM; IC50 (P. falciparum strain Dd2; [12]): 11.7 nM; IC50 (P. falciparum strain 7G8; [13]): 32.8 nM
12 | COc1ccc(-c2cnc3cc(Cl)ccc3c2NCCCNC(C)(C)C)cc1 [Compound 11] | 9.5 nM | 11.7 nM | 20.6 nM | –
13 | CN(C)c1ccc(-c2cnc3cc(Cl)ccc3c2NCCCNC(C)(C)C)cc1 [Compound 12] | 5.1 nM | 7 nM | 11.7 nM | –
14 | CC(C)(C)NCCCNc1c(-c2ccc(OC(F)F)cc2)cnc2cc(Cl)ccc12 [Compound 13] | 2.4 nM | 4.9 nM | 5.6 nM | –
15 | CC(C)(C)NCCCNc1c(-c2ccc(N3CCOCC3)cc2)cnc2cc(Cl)ccc12 [Compound 14] | 4.4 nM | 6.7 nM | 8.2 nM | –
16 | CC(C)(C)NCCCNc1c(-c2ccc(CN3CCOCC3)cc2)cnc2cc(Cl)ccc12 [Compound 15] | – | – | – | IC50 (P. falciparum strain D6; [11]): 0.8 nM; IC50 (P. falciparum strain Dd2; [12]): 0.9 nM; IC50 (P. falciparum strain 7G8; [13]): 0.9 nM
17 | CC(C)(C)NCCCNc1c(-c2ccc(Br)cc2)cnc2cc(Cl)ccc12 [Compound 16] | – | – | – | IC50 (P. falciparum strain D6; [11]): < 2.5 nM; IC50 (P. falciparum strain Dd2; [12]): < 2.5 nM; IC50 (P. falciparum strain 7G8; [13]): 2.5 nM
18 | CC(C)(C)NCCCNc1c(-c2ccc(C#N)cc2)cnc2cc(Cl)ccc12 [Compound 17] | 13.5 nM | 21.8 nM | 26.3 nM | –
19 | CC(C)(C)NCCCNc1c(-c2cccc(OC(F)(F)F)c2)cnc2cc(Cl)ccc12 [Compound 18] | < 2.5 nM | < 2.5 nM | < 2.5 nM | –
20 | FC(F)(F)Oc1ccc(-c2cnc3cc(Cl)ccc3c2NCCC2CCCCN2)cc1 (stereo not shown) [Compound 22] | 0.7 nM | 1.8 nM | < 2.5 nM | –
21 | CCN(CC)CCNc1c(-c2ccc(OC(F)(F)F)cc2)cnc2cc(Cl)ccc12 [Compound 23] | 35 nM | 80 nM | 93 nM | –
22 | CCN(CC)CCCNc1c(-c2ccc(OC(F)(F)F)cc2)cnc2cc(Cl)ccc12 [Compound 24] | – | – | – | IC50 (P. falciparum strain D6; [11]): 3.4 nM; IC50 (P. falciparum strain Dd2; [12]): 4.4 nM; IC50 (P. falciparum strain 7G8; [13]): 8.5 nM
23 | CCN(CC)CCCC(C)Nc1c(-c2ccc(OC(F)(F)F)cc2)cnc2cc(Cl)ccc12 (stereo not shown) [Compound 25] | 3.5 nM | 7.8 nM | 11.1 nM | –
24 | CC(C)(C)NCCNc1c(-c2ccc(OC(F)(F)F)cc2)cnc2cc(Cl)ccc12 [Compound 26] | – | – | – | IC50 (P. falciparum strain D6; [11]): 0.6 nM; IC50 (P. falciparum strain Dd2; [12]): 4.9 nM; IC50 (P. falciparum strain 7G8; [13]): 4.5 nM
25 | CCN(CC)CCCC(C)Nc1c2ccc(Cl)cc2nc2ccc(OC)cc12 (stereo not shown) [Quinacrine, reference compound] | – | – | – | IC50 (P. falciparum strain D6; [8]): 5 nM; IC50 (P. falciparum strain Dd2; [9]): 10 nM; IC50 (P. falciparum strain 7G8; [10]): 9 nM
26 | C=C[C@H]1C[N@@]2CC[C@H]1C[C@H]2[C@H](O)c1ccnc2ccc(OC)cc12 [Quinine, reference compound] | 19 nM | 87 nM | 30 nM | IC50 [1, 7]: 96 nM
27 | CCN(CC)CCCC(C)Nc1c(C)cnc2cc(Cl)ccc12 (stereo not shown) [Sontochin, reference compound] | – | – | – | IC50 (P. falciparum strain D6; [11]): 8 nM; IC50 (P. falciparum strain Dd2; [12]): 19 nM; IC50 (P. falciparum strain 7G8; [13]): 20 nM; IC50 ([1]; P. falciparum Tm90.C2B, multidrug and atovaquone resistant, unit inferred, read-out: IC50 value against strain Tm90.C2B): 19.1 nM; IC50 (P. falciparum strains; range over Table 1 strains, read-out: IC50 values against the drug resistant strains of P. falciparum (range)): 8 to 20 nM
